# Results: patent US6737383B1, “Herbicidal oxadiazolidines” (priority 1999, dated 2004)
# Tests used:
# bedstraw = test: Test B pre/postemergence bedstraw; assay type: in vivo, Galium aparine; conditions: Postemergence; for Plant response rating, Bedstraw: scale 0 to 10, 0 is no effect, 10 is complete control; for Bedstraw plant response rating: scale of 0 to 10 where 0 is no effect and 10 is complete control
# Summary of the method: (§1)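 Test chemicals in a non-phytotoxic solvent mixture with surfactant were sprayed preemergence onto planted seeds and postemergence onto plants 2 to 18 cm tall (1- to 4-leaf stage). After twelve to sixteen days in a greenhouse, injury was visually rated against untreated controls from 0 (no effect) to 10 (complete control).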
# surinam grass = test: Test B pre/postemergence surinam grass; assay type: in vivo, Brachiaria decumbens
# Summary of the method: as §1
# cocklebur = test: Test B pre/postemergence cocklebur; assay type: in vivo, Xanthium strumarium
# Summary of the method: as §1
# corn = test: Test B pre/postemergence corn; assay type: in vivo, Zea mays
# Summary of the method: as §1
# giant foxtail = test: Test B pre/postemergence giant foxtail; assay type: in vivo, Setaria faberii
# Summary of the method: as §1
# pigweed = test: Test B pre/postemergence pigweed; assay type: in vivo, Amaranthus retroflexus
# Summary of the method: as §1
# rape = test: Test B pre/postemergence rape; assay type: in vivo, Brassica napus
# Summary of the method: as §1
# soybean = test: Test B pre/postemergence soybean; assay type: in vivo, Glycine max
# Summary of the method: as §1
# sugar beet = test: Test B pre/postemergence sugar beet; assay type: in vivo, Beta vulgaris
# Summary of the method: as §1
# velvetleaf = test: Test B pre/postemergence velvetleaf; assay type: in vivo, Abutilon theophrasti
# Summary of the method: as §1
# wheat = test: Test B pre/postemergence wheat; assay type: in vivo, Triticum aestivum
# Summary of the method: as §1
# wild oat = test: Test B pre/postemergence wild oat; assay type: in vivo, Avena fatua
# Summary of the method: as §1
# purple nutsedge = test: Test B pre/postemergence purple nutsedge; assay type: in vivo, Cyperus rotundus
# Summary of the method: as §1
# rice = test: Test B flood test rice; assay type: in vivo, Oryza sativa
# Summary of the method: (§2)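 Each value is a visual injury score relative to controls, with 10 meaning complete control and 0 no effect. Evaluation took place twelve to sixteen days after the 2-leaf-stage plants were treated and kept in the greenhouse.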
# smallflower flatsedge = test: Test B flood test smallflower flatsedge; assay type: in vivo, Cyperus difformis
# Summary of the method: as §2
# duck salad = test: Test B flood test duck salad; assay type: in vivo, Heteranthera limosa; conditions: for Plant response rating, Ducksalad: scale 0 to 10, 0 is no effect, 10 is complete control; for Ducksalad plant response rating: scale of 0 to 10 where 0 is no effect and 10 is complete control
# Summary of the method: as §2
# [1] = Postemergence, Rate 125 g/ha, scale 0 to 10, 0 is no effect, 10 is complete control
# [2] = Postemergence, Rate 250 g/ha, scale 0 to 10, 0 is no effect, 10 is complete control
# [3] = Postemergence, Rate 500 g/ha, scale of 0 to 10 where 0 is no effect and 10 is complete control
# [4] = Preemergence, Rate 62 g/ha, scale 0 to 10 (0 no effect, 10 complete control)
# [5] = Preemergence, Rate 125 g/ha, scale of 0 to 10 where 0 is no effect and 10 is complete control
# [6] = Rate 62 g/ha, Postemergence, scale of 0 to 10 where 0 is no effect and 10 is complete control
# [7] = Preemergence, Rate 250 g/ha, scale 0 to 10, 0 is no effect, 10 is complete control
# [8] = Preemergence, Rate 500 g/ha, scale 0 to 10, 0 is no effect, 10 is complete control
# [9] = Postemergence section (flood test species), Rate 500 g/ha, scale of 0 to 10 where 0 is no effect and 10 is complete control
# [10] = flood test species, listed under Postemergence, Rate 250 g/ha, scale 0 to 10, 0 is no effect, 10 is complete control
smiles,measurement,setting,value
CSCCn1c(=O)on(C(=O)N(c2ccccc2)C(C)C)c1=O [Compound 419],"Plant response rating, Bedstraw",bedstraw; Rate 125 g/ha,0
same,"Plant response rating, Bedstraw",bedstraw; Rate 250 g/ha,0
same,Bedstraw plant response rating,bedstraw; Rate 500 g/ha,0
same,Bedstraw plant response rating,bedstraw; Rate 62 g/ha,0
same,"Plant response rating, B. signalgrass",surinam grass; [1],0
same,"Plant response rating, B. signalgrass",surinam grass; [2],0
same,B. signalgrass plant response rating,surinam grass; [3],2
same,"Plant response rating, B. signalgrass",surinam grass; [4],0
same,"Plant response rating, B. signalgrass",surinam grass; [5],0
same,B. signalgrass plant response rating,"surinam grass; Preemergence, Rate 250 g/ha, scale of 0 to 10 where 0 is no effect and 10 is complete control",2
same,B. signalgrass plant response rating,"surinam grass; Preemergence, Rate 500 g/ha, scale of 0 to 10 where 0 is no effect and 10 is complete control",8
same,B. signalgrass plant response rating,surinam grass; [6],0
same,"Plant response rating, Cocklebur",cocklebur; [1],0
same,"Plant response rating, Cocklebur",cocklebur; [2],0
same,Cocklebur plant response rating,cocklebur; [3],0
same,"Plant response rating, Cocklebur",cocklebur; [4],0
same,"Plant response rating, Cocklebur",cocklebur; [5],0
same,Cocklebur plant response rating,cocklebur; [7],0
same,Cocklebur plant response rating,cocklebur; [8],0
same,Cocklebur plant response rating,cocklebur; [6],0
same,"Plant response rating, Corn",corn; [1],0
same,"Plant response rating, Corn",corn; [2],0
same,Corn plant response rating,corn; [3],0
same,"Plant response rating, Corn",corn; [4],0
same,"Plant response rating, Corn",corn; [5],0
same,Corn plant response rating,corn; [7],0
same,Corn plant response rating,corn; [8],0
same,Corn plant response rating,corn; [6],0
same,"Plant response rating, Giant foxtail",giant foxtail; [1],0
same,"Plant response rating, Giant foxtail",giant foxtail; [2],1
same,Giant foxtail plant response rating,giant foxtail; [3],6
same,"Plant response rating, Giant foxtail",giant foxtail; [4],0
same,"Plant response rating, Giant foxtail",giant foxtail; [5],1
same,Giant foxtail plant response rating,giant foxtail; [7],2
same,Giant foxtail plant response rating,giant foxtail; [8],5
same,Giant foxtail plant response rating,giant foxtail; [6],0
same,"Plant response rating, Redroot pigweed",pigweed; [2],0
same,Redroot pigweed plant response rating,pigweed; [3],0
same,"Plant response rating, Redroot pigweed",pigweed; [4],0
same,"Plant response rating, Redroot pigweed",pigweed; [5],0
same,Redroot pigweed plant response rating,pigweed; [7],6
same,Redroot pigweed plant response rating,pigweed; [8],10
same,"Plant response rating, Rape",rape; [2],0
same,Rape plant response rating,rape; [3],0
same,"Plant response rating, Rape",rape; [4],0
same,"Plant response rating, Rape",rape; [5],0
same,Rape plant response rating,rape; [7],2
same,Rape plant response rating,rape; [8],2
same,"Plant response rating, Soybean",soybean; [2],3
same,Soybean plant response rating,soybean; [3],3
same,"Plant response rating, Soybean",soybean; [4],0
same,"Plant response rating, Soybean",soybean; [5],0
same,Soybean plant response rating,soybean; [7],0
same,Soybean plant response rating,soybean; [8],0
same,"Plant response rating, Sugarbeets",sugar beet; [2],0
same,Sugarbeets plant response rating,sugar beet; [3],0
same,"Plant response rating, Sugarbeets",sugar beet; [4],0
same,"Plant response rating, Sugarbeets",sugar beet; [5],0
same,Sugarbeets plant response rating,sugar beet; [7],3
same,Sugarbeets plant response rating,sugar beet; [8],5
same,"Plant response rating, Velvetleaf",velvetleaf; [2],0
same,Velvetleaf plant response rating,velvetleaf; [3],2
same,"Plant response rating, Velvetleaf",velvetleaf; [4],0
same,"Plant response rating, Velvetleaf",velvetleaf; [5],0
same,Velvetleaf plant response rating,velvetleaf; [7],1
same,Velvetleaf plant response rating,velvetleaf; [8],4
same,Wheat plant response rating,wheat; [3],0
same,"Plant response rating, Wheat",wheat; [4],0
same,"Plant response rating, Wheat",wheat; [5],0
same,Wheat plant response rating,wheat; [7],0
same,Wheat plant response rating,wheat; [8],0
same,Wild oats plant response rating,wild oat; [3],0
same,"Plant response rating, Wild oats",wild oat; [4],0
same,"Plant response rating, Wild oats",wild oat; [5],0
same,Wild oats plant response rating,wild oat; [7],0
same,Wild oats plant response rating,wild oat; [8],2
same,"Plant response rating, Nutsedge",purple nutsedge; [2],0
same,Nutsedge plant response rating,purple nutsedge; [3],0
same,"Plant response rating, Nutsedge",purple nutsedge; [4],0
same,"Plant response rating, Nutsedge",purple nutsedge; [5],0
same,Nutsedge plant response rating,purple nutsedge; [7],0
same,Nutsedge plant response rating,purple nutsedge; [8],0
same,Rice plant response rating,rice; [9],2
same,"Plant response rating, Rice",rice; [10],0
same,S. Flatsedge plant response rating,smallflower flatsedge; [9],3
same,"Plant response rating, S. Flatsedge",smallflower flatsedge; [10],0
same,"Plant response rating, Ducksalad","duck salad; Postemergence (flood test), Rate 125 g/ha",0
same,Ducksalad plant response rating,"duck salad; Postemergence section (flood test species), Rate 500 g/ha",0
same,Ducksalad plant response rating,"duck salad; Rate 62 g/ha, Postemergence (flood test species)",0
same,"Plant response rating, Ducksalad","duck salad; flood test species, listed under Postemergence, Rate 250 g/ha",0
